Test results taken from ChEMBL document CHEMBL1141457, “N-methyl-D-aspartate antagonists and neuropathic pain: the search for relief” (2007).

Legend:
Homo sapiens [1] = organism: Homo sapiens; assay: Reduction in post-surgical neuropathic pain intensity in cancer patient; format: functional; design: scale not given: the % may be the effect or the level left
Homo sapiens [2] = organism: Homo sapiens; assay: Reduction in pain intensity in diabetic neuropathy patient; format: functional; design: scale not given: the % may be the effect or the level left

Row | SMILES | Activity (Homo sapiens [1]) [%] | Activity (Homo sapiens [2]) [%]
1 | NC12CC3CC(CC(C3)C1)C2 [AMANTADINE] | 31 | –
2 | COc1ccc2c(c1)[C@]13CCCC[C@@H]1[C@H](C2)N(C)CC3 [DEXTROMETHORPHAN] | – | 24
